Results on 23 molecules are retold here after PubChem BioAssay (NCI).

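Test compounds were applied to cells in 96-well plates for 48 hours at 5 doses. TGI marks complete inhibition of growth.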 Where only a bound is given, the exact number is not on record here.

Test systems include HCT-116 colon; OVCAR-3 ovarian; TK-10 renal; 786-0 renal; M14 melanoma; BT-549 breast; SK-MEL-2 melanoma; CAKI-1 renal; HT29 colon; NCI/ADR-RES ovarian; NCI-H23 lung; SK-MEL-5 melanoma; PC-3 prostate; MCF7 breast; A498 renal.
Common to all, as to assay: inhibition of tumour cell growth, NCI panel, 48 h

In the case of `CCCC1=NC(C(F)(F)F)(C(F)(F)F)N=C(N2CCOCC2)O1`, the TGI with HCT-116 colon, with OVCAR-3 ovarian, in the assay on TK-10 renal, in the assay with 786-0 renal, with M14 melanoma and in the assay with BT-549 breast was > 100 µM throughout. For the same molecule, the TGI in the assay on SK-MEL-2 melanoma, with CAKI-1 renal, in the assay on HT29 colon, in the assay with NCI/ADR-RES ovarian, in the assay with NCI-H23 lung and with SK-MEL-5 melanoma was > 100 µM in each case. Also, the TGI in the assay on PC-3 prostate and in the assay on MCF7 breast was > 100 µM each time.
As to `O=S(=O)(c1ccccc1)n1cnc(CCc2ccccc2)n1`, the TGI in the assay on HCT-116 colon, with OVCAR-3 ovarian, with A498 renal, with TK-10 renal, in the assay on 786-0 renal and in the assay with M14 melanoma was > 100 µM in each case. Moreover, the TGI with SK-MEL-2 melanoma, with CAKI-1 renal, with HT29 colon, in the assay with NCI-H23 lung and with SK-MEL-5 melanoma was > 100 µM each time.
Take `COC(=O)NN/C=C(\C=Nc1ccccc1)[N+](=O)[O-]`: the TGI in the assay on HCT-116 colon, in the assay with OVCAR-3 ovarian, in the assay with TK-10 renal, with 786-0 renal, in the assay on M14 melanoma and in the assay on HT29 colon was > 100 µM each time. Besides, the TGI in the assay with NCI-H23 lung and in the assay with SK-MEL-5 melanoma was > 100 µM each time.
Turning to `c1csc(-c2cscc2-c2cccs2)c1`, the TGI was > 100 µM in the assay with HCT-116 colon; 47.3 µM with OVCAR-3 ovarian; > 100 µM in the assay with A498 renal; > 100 µM in the assay on TK-10 renal; > 100 µM in the assay with 786-0 renal; > 100 µM with M14 melanoma. Also, the TGI in the assay on BT-549 breast, in the assay on CAKI-1 renal, with HT29 colon, with NCI/ADR-RES ovarian, in the assay on NCI-H23 lung and with SK-MEL-5 melanoma was > 100 µM in each case. For the same molecule, the TGI worked out at 39.9 µM in the assay on PC-3 prostate and 49.5 µM in the assay on MCF7 breast.
Turning to `CCOC(=O)c1ncn2c1[nH]c(=O)c1ccccc12`, the TGI in the assay with HCT-116 colon, in the assay on OVCAR-3 ovarian, in the assay with TK-10 renal, in the assay on 786-0 renal, in the assay on M14 melanoma and in the assay with SK-MEL-2 melanoma was > 100 µM throughout. Also, the TGI in the assay with HT29 colon, in the assay on NCI-H23 lung and with SK-MEL-5 melanoma was > 100 µM throughout.
As for `C=C(C)C1Cc2c(cc(OC)c3c(=O)c4ccccc4n(C)c23)O1` (centres undefined), the TGI with HCT-116 colon, with OVCAR-3 ovarian, in the assay with A498 renal, with TK-10 renal, with 786-0 renal and with M14 melanoma was > 100 µM in each case. In addition, the TGI in the assay on SK-MEL-2 melanoma, in the assay on CAKI-1 renal, in the assay with HT29 colon, in the assay on NCI-H23 lung and in the assay on SK-MEL-5 melanoma was > 100 µM throughout.
Turning to `CC1(Br)S(=O)(=O)OCCOS1(=O)=O`, the TGI with HCT-116 colon, in the assay on OVCAR-3 ovarian, in the assay with A498 renal, with TK-10 renal, in the assay on 786-0 renal and in the assay on M14 melanoma was > 100 µM each time. For the same molecule, the TGI in the assay with SK-MEL-2 melanoma, with HT29 colon, with NCI-H23 lung and with SK-MEL-5 melanoma was > 100 µM in each case.
For `CC(=O)C(CN(C)Cc1ccccc1)C(c1ccccc1)c1c(O)c2ccccc2oc1=O` (centres undefined), the TGI in the assay on HCT-116 colon, with A498 renal, in the assay with TK-10 renal, with 786-0 renal, with M14 melanoma and in the assay on SK-MEL-2 melanoma was > 100 µM throughout. Also, the TGI in the assay with CAKI-1 renal, in the assay with HT29 colon, in the assay on NCI-H23 lung and in the assay on SK-MEL-5 melanoma was > 100 µM each time.
In the case of `OC1=CN=C(C2CC2)Oc2ccccc21`, the TGI in the assay on HCT-116 colon, with OVCAR-3 ovarian, in the assay with A498 renal, in the assay on TK-10 renal, with 786-0 renal and with M14 melanoma was > 100 µM throughout. In addition, the TGI in the assay on SK-MEL-2 melanoma, in the assay with HT29 colon, in the assay with NCI-H23 lung and with SK-MEL-5 melanoma was > 100 µM in each case.
With `CCNC(=S)Nc1c(C#N)c2n(c1C(=O)OCC)CCCCC2`, the TGI in the assay with HCT-116 colon, in the assay on A498 renal, with TK-10 renal, with 786-0 renal, with M14 melanoma and in the assay on BT-549 breast was > 100 µM in each case. The TGI in the assay with SK-MEL-2 melanoma, in the assay on CAKI-1 renal, in the assay with HT29 colon, in the assay on NCI/ADR-RES ovarian, in the assay on NCI-H23 lung and with SK-MEL-5 melanoma was > 100 µM each time. Further, the TGI in the assay on PC-3 prostate and in the assay with MCF7 breast was > 100 µM throughout.
For the molecule `CC(C)(C)c1cc(Oc2ccc(C#N)c(C#N)c2)cc(C(C)(C)C)c1`, the TGI in the assay with HCT-116 colon, in the assay on OVCAR-3 ovarian, in the assay with A498 renal, with TK-10 renal, with 786-0 renal and with M14 melanoma was > 100 µM in each case. Moreover, the TGI in the assay on SK-MEL-2 melanoma, in the assay on CAKI-1 renal, in the assay with HT29 colon, in the assay with NCI-H23 lung and in the assay on SK-MEL-5 melanoma was > 100 µM in each case.
Consider `O=C(Cc1nc2ccc(C(=O)c3ccccc3)cc2[nH]c1=O)C(=O)Nc1ccc(C(F)(F)F)cc1[N+](=O)[O-]`, for which the TGI in the assay on HCT-116 colon, in the assay with OVCAR-3 ovarian, in the assay with A498 renal, in the assay with TK-10 renal, with 786-0 renal and in the assay with M14 melanoma was > 100 µM in each case. In addition, the TGI with SK-MEL-2 melanoma, in the assay with CAKI-1 renal, in the assay on HT29 colon, in the assay with NCI-H23 lung and with SK-MEL-5 melanoma was > 100 µM each time.
Turning to `COc1ccccc1NC(=O)CC(=O)n1nc(-c2ccccc2)c(N=Nc2ccccc2[N+](=O)[O-])c1-c1ccccc1`, the TGI with HCT-116 colon, in the assay with OVCAR-3 ovarian, in the assay with TK-10 renal, in the assay on 786-0 renal, with M14 melanoma and in the assay on SK-MEL-2 melanoma was > 100 µM throughout. Besides, the TGI with CAKI-1 renal, with HT29 colon, with NCI-H23 lung and in the assay on SK-MEL-5 melanoma was > 100 µM each time.
As to `CC1(C)CC(=O)C(CC2C(=O)c3ccccc3C2=O)C(=O)C1C(=O)C(=O)Nc1cccc2ccc(O)cc12` (centres undefined), the TGI in the assay on HCT-116 colon is > 100 µM; with OVCAR-3 ovarian, > 100 µM; with A498 renal, 69.8 µM; in the assay on TK-10 renal it was > 100 µM; with 786-0 renal, > 100 µM; in the assay on M14 melanoma, > 100 µM. In addition, the TGI with BT-549 breast, with SK-MEL-2 melanoma, with CAKI-1 renal, in the assay with HT29 colon, in the assay with NCI/ADR-RES ovarian and with NCI-H23 lung was > 100 µM in each case. Moreover, the TGI in the assay with SK-MEL-5 melanoma, with PC-3 prostate and with MCF7 breast was > 100 µM in each case.
Consider `COc1ccc(C(=O)/C=C/c2ccc(OCC#N)cc2)cc1OC`, for which the TGI with HCT-116 colon came out at 17.2 µM; in the assay on OVCAR-3 ovarian, 49.1 µM; in the assay on TK-10 renal, 70 µM; in the assay on 786-0 renal, 86.7 µM; with M14 melanoma it was 37.3 µM; with BT-549 breast, 30 µM. The TGI worked out at 37.5 µM with CAKI-1 renal; 74.7 µM with HT29 colon; 50.2 µM with NCI/ADR-RES ovarian; 54.5 µM in the assay on NCI-H23 lung; 32.2 µM with SK-MEL-5 melanoma; 16 µM with MCF7 breast.
For `CC(C)(C)OC(=O)N(CCCCNC(=O)c1ccccc1)CCCNC(=O)c1ccccc1`, the TGI in the assay on HCT-116 colon, with OVCAR-3 ovarian, in the assay with A498 renal, with TK-10 renal, in the assay on 786-0 renal and with M14 melanoma was > 100 µM each time. The TGI in the assay on BT-549 breast, in the assay with SK-MEL-2 melanoma, with CAKI-1 renal, in the assay on HT29 colon, in the assay on NCI/ADR-RES ovarian and in the assay on NCI-H23 lung was > 100 µM in each case. Further, the TGI with SK-MEL-5 melanoma, in the assay with PC-3 prostate and in the assay on MCF7 breast was > 100 µM throughout.
`CC1=C(S(=O)c2ccc(C)cc2)CCC2(CCCCO2)O1` (centres undefined): the TGI in the assay with HCT-116 colon, with OVCAR-3 ovarian, in the assay with A498 renal, with TK-10 renal, in the assay on 786-0 renal and in the assay on BT-549 breast was > 100 µM each time. Also, the TGI in the assay on SK-MEL-2 melanoma, in the assay with CAKI-1 renal, in the assay on HT29 colon, in the assay with NCI/ADR-RES ovarian, in the assay on NCI-H23 lung and in the assay with SK-MEL-5 melanoma was > 100 µM throughout. The TGI in the assay with PC-3 prostate and with MCF7 breast was > 100 µM in each case.
On to `c1ccc2c(c1)ccc1nc3ccccn3c12`, for which the TGI in the assay with OVCAR-3 ovarian, in the assay with TK-10 renal, in the assay with 786-0 renal, in the assay on M14 melanoma, in the assay with BT-549 breast and with HT29 colon was > 100 µM each time. For the same molecule, the TGI in the assay on NCI/ADR-RES ovarian, with NCI-H23 lung, with SK-MEL-5 melanoma, in the assay on PC-3 prostate and with MCF7 breast was > 100 µM each time.
For the molecule `COC(=O)c1ccc(-n2c(C)nc(=O)c(-c3ccccc3)c2C)cc1`, the TGI in the assay with HCT-116 colon, in the assay on OVCAR-3 ovarian, in the assay with A498 renal, with TK-10 renal, in the assay on 786-0 renal and in the assay on M14 melanoma was > 100 µM in each case. The TGI in the assay with BT-549 breast, in the assay on SK-MEL-2 melanoma, with CAKI-1 renal, in the assay with HT29 colon, in the assay on NCI/ADR-RES ovarian and in the assay with NCI-H23 lung was > 100 µM throughout. Besides, the TGI with SK-MEL-5 melanoma, in the assay on PC-3 prostate and with MCF7 breast was > 100 µM in each case.
Turning to `Cc1ccc(S(=O)(=O)C(C#N)c2nc3ccccc3nc2N2CCOCC2)cc1` (centres undefined), the TGI with HCT-116 colon is 38.4 µM; with OVCAR-3 ovarian, 91.6 µM; in the assay on A498 renal it was > 100 µM; in the assay with TK-10 renal, > 100 µM; in the assay on 786-0 renal it was > 100 µM; in the assay with M14 melanoma it was > 100 µM. For the same molecule, the TGI in the assay on SK-MEL-2 melanoma is 88.6 µM; with CAKI-1 renal, 65 µM; with NCI-H23 lung, 55.1 µM; in the assay on SK-MEL-5 melanoma it was > 100 µM.
In the case of `C=CC(Br)(CBr)CCC(Br)C(C)(C)Br` (centres undefined), the TGI in the assay with HCT-116 colon stood at 28.3 µM; in the assay on TK-10 renal, 30.3 µM; in the assay on 786-0 renal it was 25.6 µM; with M14 melanoma it was 28.3 µM; with SK-MEL-2 melanoma it was 29.7 µM; in the assay with CAKI-1 renal, 37.4 µM. Besides, the TGI in the assay on HT29 colon is 26.8 µM; in the assay with NCI-H23 lung it was 30.3 µM; in the assay with SK-MEL-5 melanoma, 27.8 µM.
As to `Cc1no[n+]([O-])c1/C=N/NS(=O)(=O)c1ccccc1`, the TGI in the assay with HCT-116 colon, with OVCAR-3 ovarian, in the assay on A498 renal, with TK-10 renal, in the assay with 786-0 renal and with M14 melanoma was > 100 µM in each case. The TGI with SK-MEL-2 melanoma, in the assay with CAKI-1 renal, with HT29 colon, in the assay on NCI-H23 lung and in the assay with SK-MEL-5 melanoma was > 100 µM each time.
As to `O=C(Nc1ccccc1)c1cc2c(cc1Cl)SC(NNCCO)=NS2(=O)=O`, the TGI with HCT-116 colon, with A498 renal, in the assay on TK-10 renal, in the assay on 786-0 renal, with M14 melanoma and in the assay with BT-549 breast was > 100 µM each time. Moreover, the TGI in the assay on SK-MEL-2 melanoma, in the assay on CAKI-1 renal, in the assay on HT29 colon, with NCI/ADR-RES ovarian, in the assay on NCI-H23 lung and in the assay with SK-MEL-5 melanoma was > 100 µM each time. For the same molecule, the TGI in the assay with PC-3 prostate and in the assay on MCF7 breast was > 100 µM each time.
